Values quoted from earlier work as cited in patent publication US7816357B2, “Azabicyclic heterocycles as cannabinoid receptor modulators” (Bristol-Myers Squibb Company, priority 2003, dated 2010).

Test system: human subjects
Conditions: 16 week trial period, published Phase IIb data

## Cc1c(C(=O)NN2CCCCC2)nn(-c2ccc(Cl)cc2Cl)c1-c1ccc(Cl)cc1 [SR-141716]
  body weight in human subjects: dose-dependently reduced body weight
